What was measured:
Type in all cases: biochemical
cathepsin K = target: T1, cathepsin K (Homo sapiens, UniProt P43235); assay: Measurement of cathepsin K inhibitory activity; conditions: Dixon plot, pH 5.5, 37° C.
T1 sequence (P43235 115-329): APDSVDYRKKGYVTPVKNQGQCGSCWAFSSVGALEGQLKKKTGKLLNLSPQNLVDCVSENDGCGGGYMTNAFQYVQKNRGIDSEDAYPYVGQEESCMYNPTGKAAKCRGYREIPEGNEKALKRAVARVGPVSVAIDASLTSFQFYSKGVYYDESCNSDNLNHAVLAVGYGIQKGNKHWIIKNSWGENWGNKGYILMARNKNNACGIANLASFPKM
Protocol: (i) Measurement of Cathepsin K Inhibitory Activity
65 μL of Cathepsin K enzyme reaction buffer (50 mmol/L of 2-(N-morpholino)ethanesulfonate, 2 mmol/L of ethylenediamine tetraacetate (EDTA) and 4 mmol/L of dithiothreitol (DTT) were mixed to adjust to pH 5.5), 5 μL of cysteine protease inhibitor solution of several concentrations, 20 μL of synthesized substrate (t-butyloxycarbonyl-L-alanyl-glycyl-L-prolyl-L-arginine-4-methyl-chromanyl-7-amide) solution of several concentrations and 10 μL of cathepsin K enzyme solution were mixed and the increase of fluorescence intensity when reacted at 37° C. was measured (λ ex (excitation wavelength)=355 nm, λ em (fluorescence wavelength)=460 nm). As to the substrate and the compound of the present invention, enzyme reactions were carried out in combination of several appropriate concentrations and Dixon plotting was prepared, to define the absolute value of X-coordinate of the intersection point of the graph as Ki value.

cathepsin B = cathepsin B (Homo sapiens, UniProt P07858); assay: Measurement of cathepsin B inhibitory activity
Protocol: (ii) Measurement of Cathepsin B Inhibitory Activity
10 μL of Synthesized substrate (carbobenzoxy-L-arginyl-L-arginine-4-methyl-chromanyl-7-amide or carbobenzoxy-L-phenylalanyl-L-arginine-4-methyl-chromanyl-7-amide) solution of several concentrations, 10 μL of cysteine protease inhibitor solution of several concentrations, 70 μL of cathepsin B enzyme reaction buffer (mixture of 400 mmol/L in acetic acid, 4 mmol/L EDTA, 8 mmol/L DDT to adjust to pH 5.5) and 10 μL of cathepsin B enzyme solution were mixed and the increase of fluorescence intensity was measured (λ ex (excitation wavelength)=355 nm, μ em (fluorescence wavelength)=460 nm) when reacted at 37° C.
For example, the inhibitory activity of the compound of example 10 was 95% at 1 μM.

cathepsin S = cathepsin S (Homo sapiens, UniProt P25774); assay: Measurement of cathepsin S inhibitory activity
Sequence of cathepsin S (P25774 115-331, species assumed): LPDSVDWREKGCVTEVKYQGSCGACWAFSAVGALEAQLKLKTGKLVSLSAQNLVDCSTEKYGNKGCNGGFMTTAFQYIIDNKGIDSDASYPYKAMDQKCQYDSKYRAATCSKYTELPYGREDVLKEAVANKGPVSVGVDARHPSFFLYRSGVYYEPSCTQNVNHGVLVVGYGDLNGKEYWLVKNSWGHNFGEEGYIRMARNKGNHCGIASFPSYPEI
Protocol: (iii) Measurement of Cathepsin S Inhibitory Activity
10 μL of synthesized substrate (carbobenzoxy-L-leucyl-L-leucyl-L-arguinine-4-methyl-chromanyl-7-amide) solution and 5 μL of cysteine protease inhibitor solution of several concentrations, 75 μL of cathepsin S enzyme reaction buffer (100 mmol/L of sodium phosphate, 2 mmol/L of EDTA, 2 mmol/L of DTT were mixed to adjust to pH 6.5) and 10 μL of cathepsin S enzyme solution were mixed and the increase of fluorescence intensity was measured (λ ex(excitation wavelength)=355 nm, λ em (fluorescence wavelength)=460 nm) when reacted at 37° C.
It was confirmed that the compound of the present invention of formula (I) has an inhibitory effect more than 50% at 10 μM. For example, the inhibitory activity of the compound of example 18 was 98% at 1 μM.

cathepsin L = cathepsin L (Homo sapiens, UniProt P07711); assay: Measurement of cathepsin L inhibitory activity
Sequence of cathepsin L (P07711 114-333, species assumed): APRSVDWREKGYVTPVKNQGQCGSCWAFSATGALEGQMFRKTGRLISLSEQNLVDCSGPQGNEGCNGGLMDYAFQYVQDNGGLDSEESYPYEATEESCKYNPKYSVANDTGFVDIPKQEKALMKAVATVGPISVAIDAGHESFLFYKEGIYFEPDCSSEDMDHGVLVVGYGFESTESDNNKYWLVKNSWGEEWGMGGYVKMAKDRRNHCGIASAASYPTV
Protocol: (iv) Measurement of Cathepsin L Inhibitory Activity
5 μL of Synthesized substrate (carbobenzoxy-L-phenylalanyl-L-arguine-4-methyl-chromanyl-7-amide or L-prolyl-L-phenylalanyl-L-arguinine-4-methyl-chromanyl-7-amide) solution and 5 μL of cysteine protease inhibitor solution of several concentrations, 80 μL of cathepsin L enzyme reaction buffer (400 mmol/L acetic acid, 4 mmol/L EDTA, 8 mmol/L DTT were mixed to adjust to pH 5.5) and 10 μL of cathepsin L enzyme solution were mixed and the increase of fluorescence intensity was measured (λ ex (excitation wavelength)=355 nm, λ em (fluorescence wavelength)=460 nm) when reacted at 37° C.
For example, the inhibitory activity of the compound of example 22(4) was 97% at 1 μM.

## CC(C)C[C@H](NC(=O)[C@H](CC(C)C)NC(=O)OCc1ccccc1)C(=O)CN1CCCc2ccccc2C1 [3(14), (2S)-N-[(3S)-5-methyl-2-oxo-1-(1,3,4,5-tetrahydro-2H-2-benzazepin-2-yl)-3-hexyl]-4-methyl-2-benzyloxycarbonylamino pentanamide]
Cathepsin K
  Ki: 100 nM

## CC(C)C[C@H](NC(=O)[C@@H]1CCCC[C@@H]1NC(=O)c1ccccc1)C(=O)CN1CCCc2ccccc2C1 [example 3]
Cathepsin K
  Ki: 170 nM

## CC(C)C[C@H](NC(=O)[C@@H]1CCCC[C@@H]1NC(=O)c1ccccc1)C(=O)CN1CCCCc2ccccc21 [example 10]
Cathepsin B
  inhibition at 1 µM: 95%

## CC(C)CC(NC(=O)[C@H](CC(C)C)NC(=O)OCc1ccccc1)C(=O)CN1CCCc2cc(O)ccc2C1 (stereo partly drawn) [example 18]
Cathepsin S
  inhibition at 1 µM: 98%

## CC(C)C[C@H](NC(=O)[C@H](CC(C)C)NC(=O)OCc1ccccc1)C(=O)CN1CCN(C(C)C)c2ccccc2C1 [example 22(4), (2S)-N-[(3S)-5-methyl-1-(1-isopropyl-2,3,4,5-tetrahydro-1H-1,4-benzodiazepin-4-yl)-2-oxo-3-hexyl]-2-benzyloxycarbonyl amino-4-methylpentanamide]
Cathepsin L
  inhibition at 1 µM: 97%

## CC(C)C[C@H](NC(=O)[C@H](CC(C)C)NC(=O)OCc1ccccc1)C(=O)CN1CCSc2ccccc2C1 [example 31, (2S)-N-[(3S)-5-methyl-2-oxo-1-(2,3,4,5-tetrahydro-1,4-benzothiazepin-4-yl)-3-hexyl]-2-benzyloxycarbonylamino-4-methylpentanamide]
Cathepsin K
  Ki: 81 nM

Reference: patent US6809092B2, “Benezene-fused heteroring derivatives and pharmaceutical agents comprising the same as active ingredient” (Ono Pharmaceutical Co., Ltd., priority 2000, dated 2004)
